# Test results as given in paper PMC9154192 (PLoS Biology, 2022).
# Values joined by “and” are separate entries in the source; they are usually repeats but may differ in a detail not shown here. Equal entries are not always repeated. Where two headings read alike, the source gives them in different places.
# Assays:
# [1] = tested on: XDR M. tuberculosis (KMRC 00203–00197); format: cell-based, Mycobacterium tuberculosis; settings: for log reduction (CFU): 7 days
# XDR M. tuberculosis = experiment: Luminescence-based microbial cell viability assay; design: species or system Mycobacterium tuberculosis
# M. phocaicum = experiment: microbe, parasite or virus in culture; format: cell-based, Mycobacterium phocaicum; settings: Mycolicibacterium phocaicum
# M. conceptionense = experiment: microbe, parasite or virus in culture; format: cell-based, Mycobacterium conceptionense; settings: Mycolicibacterium senegalense
# M. tuberculosis H37Rv = format: cell-based, Mycobacterium tuberculosis; settings: for CFU/ml (average) / CFU/ml, single values / Intracellular M. tuberculosis, % (Drug Free = 100.0): H37Rv; for growth of M. tuberculosis in macrophages (CFU): H37Rv in Raw 264.7 cells, 3 days, concentration-dependent
# M. aubagnense = experiment: microbe, parasite or virus in culture; format: cell-based, Mycobacterium aubagnense; settings: Mycolicibacterium aubagnense
# in vitro [2] = format: cell-based, murine; settings: mouse
# In short: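 Read-out: cell viability by WST-1 reduction and by MTT. The cytotoxicity workflow followed methods described previously.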
# M. tuberculosis H37Ra = experiment: microbe, parasite or virus in culture; format: cell-based, Mycobacterium tuberculosis; settings: Mycobacterium tuberculosis, H37RA
# M. bovis = experiment: microbe, parasite or virus in culture; format: cell-based; settings: Mycobacterium tuberculosis variant bovis
# in vitro [3] = format: cell-based; settings: human
# Method: A549 human pulmonary epithelial cells (KCLB 10185), human embryonic kidney (HEK) 293 cells (KCLB 21573), human THP-1 leukemia cells (KCLB 40202), human neuroblastoma SH-SY5Y cells (KCLB 22266), Murine Raw 264.7 macrophages (KCLB 40071), and L929 murine fibroblasts (KCLB 10001) were purchased from the KCLB (Seoul, Korea). Cytotoxicity testing was performed using the MTT assay and the WST-1 cell viability assay as previously described.
# M. intracellulare = experiment: microbe, parasite or virus in culture; format: cell-based; settings: Mycobacterium intracellulare
# Proteus mirabilis = experiment: Broth dilution MIC (CLSI); format: cell-based; settings: read-out: MIC
# Candida albicans = experiment: Broth dilution MIC (CLSI); format: cell-based; settings: read-out: MIC
# Shigella flexneri = experiment: Broth dilution MIC (CLSI); format: cell-based; settings: read-out: MIC
# Pseudomonas aeruginosa = experiment: Broth dilution MIC (CLSI); format: cell-based; settings: read-out: MIC
# [4] = tested on: Staphylococcus aureus, MRSA; experiment: Broth dilution MIC (CLSI); format: cell-based; settings: read-out: MIC
# [5] = tested on: Staphylococcus epidermidis; experiment: Broth dilution MIC (CLSI); format: cell-based; settings: read-out: MIC
# Salmonella Typhimurium = experiment: Broth dilution MIC (CLSI); format: cell-based; settings: Salmonella enterica; Salmonella Typhimurium; read-out: MIC
# Cryptococcus neoformans = experiment: Broth dilution MIC (CLSI); format: cell-based; settings: read-out: MIC
# Serratia marcescens = experiment: Broth dilution MIC (CLSI); format: cell-based; settings: read-out: MIC
# [6] = tested on: Corynebacterium diphtheriae; experiment: Broth dilution MIC (CLSI); format: cell-based; settings: read-out: MIC
# Trichophyton rubrum = experiment: Broth dilution MIC (CLSI); format: cell-based; settings: read-out: MIC
# Shigella boydii = experiment: Broth dilution MIC (CLSI); format: cell-based; settings: read-out: MIC
compound,measurement,setting,value
"COC(=O)[C@@H]1CCC(=O)N1Cc1cc2ccc(OC)cc2c2cc(OC)c(OC)cc12 [PP1S, (S)-N-[(2,3,6-Trimethoxy-10-phenanthryl)methyl]-pyroglutamic acid methyl ester]","CFU (replicates1-3), single values",[1],9800 CFU and 11000 CFU and 9100 CFU and 4200 CFU and 13900 CFU and 20700 CFU and 20100 CFU and 12600 CFU and 16500 CFU and 28000 CFU and 112000 CFU and 92700 CFU and 90100 CFU and 36800 CFU and 38700 CFU and 24400 CFU and 24700 CFU and 22500 CFU
same,log reduction (CFU),[1]; at 0.8 μg/ml,0.8
same,log reduction (CFU),[1]; at 1.6 μg/ml,1.3
same,"RLU/50ul (replicates1-3), single values",XDR M. tuberculosis,370 RLU/50ul (2×) and 430 RLU/50ul and 270 RLU/50ul and 260 RLU/50ul and 320 RLU/50ul and 360 RLU/50ul and 340 RLU/50ul and 390 RLU/50ul and 420 RLU/50ul and 450 RLU/50ul and 590 RLU/50ul and 610 RLU/50ul and 670 RLU/50ul and 570 RLU/50ul and 550 RLU/50ul (2×) and 460 RLU/50ul and 440 RLU/50ul and 630 RLU/50ul and 790 RLU/50ul and 540 RLU/50ul and 580 RLU/50ul and 840 RLU/50ul and 860 RLU/50ul and 750 RLU/50ul and 640 RLU/50ul
same,RLU/ml (×100),XDR M. tuberculosis,69.1 RLU/ml (×100) and 105.8 RLU/ml (×100) and 137.3 RLU/ml (×100)
same,concentration with significant antitubercular effect,XDR M. tuberculosis,1.56 µg/mL and 0.78 µg/mL
same,MIC,M. phocaicum,> 100 µg/mL
same,MIC,M. conceptionense,> 100 µg/mL
same,CFU/ml (average),"M. tuberculosis H37Rv; Fig 3A, drug conc. 1.6",26333 CFU/ml
same,"CFU/ml, single values","M. tuberculosis H37Rv; Fig 3A, drug conc. 1.6",26400 CFU/ml and 26700 CFU/ml and 25900 CFU/ml
same,"Intracellular M. tuberculosis, % (Drug Free = 100.0)","M. tuberculosis H37Rv; Fig 3A, drug conc. 1.6",78.3%
same,CFU/ml (average),"M. tuberculosis H37Rv; Fig 3A, drug conc. 3.1",21190 CFU/ml
same,"CFU/ml, single values","M. tuberculosis H37Rv; Fig 3A, drug conc. 3.1",20900 CFU/ml and 22200 CFU/ml and 20470 CFU/ml
same,"Intracellular M. tuberculosis, % (Drug Free = 100.0)","M. tuberculosis H37Rv; Fig 3A, drug conc. 3.1",63.0%
same,CFU/ml (average),"M. tuberculosis H37Rv; Fig 3A, drug conc. 6.3",15203 CFU/ml
same,"CFU/ml, single values","M. tuberculosis H37Rv; Fig 3A, drug conc. 6.3",15200 CFU/ml and 14100 CFU/ml and 16310 CFU/ml
same,"Intracellular M. tuberculosis, % (Drug Free = 100.0)","M. tuberculosis H37Rv; Fig 3A, drug conc. 6.3",45.2%
same,CFU/ml (average),"M. tuberculosis H37Rv; Fig 3A, drug conc. 12.5",8003 CFU/ml
same,"CFU/ml, single values","M. tuberculosis H37Rv; Fig 3A, drug conc. 12.5",8000 CFU/ml and 7500 CFU/ml and 8510 CFU/ml
same,"Intracellular M. tuberculosis, % (Drug Free = 100.0)","M. tuberculosis H37Rv; Fig 3A, drug conc. 12.5",23.8%
same,CFU/ml (average),"M. tuberculosis H37Rv; Fig 3A, drug conc. 25",707 CFU/ml
same,"Intracellular M. tuberculosis, % (Drug Free = 100.0)","M. tuberculosis H37Rv; Fig 3A, drug conc. 25",2.1%
same,growth of M. tuberculosis in macrophages (CFU),M. tuberculosis H37Rv,significantly inhibited the growth
same,MIC,M. aubagnense,> 100 µg/mL
same,CC50,in vitro [2]; L929,> 500 µg/mL
same,CC50,"in vitro [2]; L929, MTT assay (Table S1)",> 100 µg/mL
same,CC50,"in vitro [2]; RAW, MTT assay (Table S1)",> 100 µg/mL
same,CC50,in vitro [2]; Raw264.7,> 500 µg/mL
same,MIC,M. tuberculosis H37Ra,1.6 µg/mL
same,MIC,M. bovis,1.6 µg/mL
same,CC50,in vitro [3]; A549,> 500 µg/mL
same,CC50,in vitro [3]; HEK-293,> 500 µg/mL
same,CC50,in vitro [3]; SH-SY5Y,> 500 µg/mL
same,CC50,in vitro [3]; THP-1,> 500 µg/mL
same,MIC,M. intracellulare,> 100 µg/mL
same,MIC,Proteus mirabilis,> 100 µg/mL
same,MIC,Candida albicans,> 100 µg/mL
same,MIC,Shigella flexneri,> 100 µg/mL
same,MIC,Pseudomonas aeruginosa,> 100 µg/mL
same,MIC,[4],> 100 µg/mL
same,MIC,[5],> 100 µg/mL
same,MIC,Salmonella Typhimurium,> 100 µg/mL
same,MIC,Cryptococcus neoformans,> 100 µg/mL
same,MIC,Serratia marcescens,> 100 µg/mL
same,MIC,[6],> 100 µg/mL
same,MIC,Trichophyton rubrum,> 100 µg/mL
same,MIC,Shigella boydii,> 100 µg/mL
"CCCCOc1ccc2cc(CN3C(=O)CC[C@H]3C(=O)OC)c3cc(OC)c(OC)cc3c2c1 [PP2S, Methyl (S)-1-((3-butoxy-6,7-dimethoxyphenanthren-9-yl)methyl)-5-oxopyrrolidine-2-carboxylate]",CFU (log),[1],3.65 and 3.73
same,"CFU (replicates1-3), single values",[1],5500 CFU and 1100 CFU and 2900 CFU and 2700 CFU and 6500 CFU and 5100 CFU and 5400 CFU and 6100 CFU and 5320 CFU and 9100 CFU and 3200 CFU (2×) and 3600 CFU and 3300 CFU and 3400 CFU and 2100 CFU and 12800 CFU and 8170 CFU
same,log reduction (CFU),[1]; at 0.8 μg/ml,1.8
same,log reduction (CFU),[1]; at 1.6 μg/ml,1.9
same,"RLU/50ul (replicates1-3), single values",XDR M. tuberculosis,50 RLU/50ul and 140 RLU/50ul and 80 RLU/50ul and 90 RLU/50ul (2×) and 120 RLU/50ul and 70 RLU/50ul and 130 RLU/50ul and 40 RLU/50ul and 260 RLU/50ul and 290 RLU/50ul and 430 RLU/50ul and 420 RLU/50ul and 460 RLU/50ul and 330 RLU/50ul and 390 RLU/50ul and 410 RLU/50ul and 220 RLU/50ul and 640 RLU/50ul and 720 RLU/50ul and 540 RLU/50ul and 550 RLU/50ul and 580 RLU/50ul and 450 RLU/50ul (2×) and 590 RLU/50ul and 630 RLU/50ul
same,concentration with significant antitubercular effect,XDR M. tuberculosis,0.39 µg/mL
same,MIC,M. phocaicum,> 100 µg/mL
same,MIC,M. conceptionense,> 100 µg/mL
same,CFU/ml (average),"M. tuberculosis H37Rv; Fig 3B, drug conc. 1.6",26807 CFU/ml
same,"CFU/ml, single values","M. tuberculosis H37Rv; Fig 3B, drug conc. 1.6",23800 CFU/ml and 25500 CFU/ml and 31120 CFU/ml
same,"Intracellular M. tuberculosis, % (Drug Free = 100.0)","M. tuberculosis H37Rv; Fig 3B, drug conc. 1.6",79.7%
same,CFU/ml (average),"M. tuberculosis H37Rv; Fig 3B, drug conc. 3.1",22130 CFU/ml
same,"CFU/ml, single values","M. tuberculosis H37Rv; Fig 3B, drug conc. 3.1",17950 CFU/ml and 21400 CFU/ml and 27040 CFU/ml
same,"Intracellular M. tuberculosis, % (Drug Free = 100.0)","M. tuberculosis H37Rv; Fig 3B, drug conc. 3.1",65.8%
same,CFU/ml (average),"M. tuberculosis H37Rv; Fig 3B, drug conc. 6.3",12950 CFU/ml
same,"Intracellular M. tuberculosis, % (Drug Free = 100.0)","M. tuberculosis H37Rv; Fig 3B, drug conc. 6.3",38.5%
same,CFU/ml (average),"M. tuberculosis H37Rv; Fig 3B, drug conc. 12.5",7367 CFU/ml
same,"Intracellular M. tuberculosis, % (Drug Free = 100.0)","M. tuberculosis H37Rv; Fig 3B, drug conc. 12.5",21.9%
same,CFU/ml (average),"M. tuberculosis H37Rv; Fig 3B, drug conc. 25",640 CFU/ml
same,"Intracellular M. tuberculosis, % (Drug Free = 100.0)","M. tuberculosis H37Rv; Fig 3B, drug conc. 25",1.9%
same,growth of M. tuberculosis in macrophages (CFU),M. tuberculosis H37Rv,significantly inhibited the growth
same,MIC,M. aubagnense,> 100 µg/mL
same,CC50,in vitro [2]; L929,> 500 µg/mL
same,CC50,in vitro [2]; Raw264.7,> 500 µg/mL
same,MIC,M. tuberculosis H37Ra,0.4 µg/mL
same,MIC,M. bovis,0.8 µg/mL
same,CC50,in vitro [3]; A549,> 500 µg/mL
same,CC50,in vitro [3]; HEK-293,> 500 µg/mL
same,CC50,in vitro [3]; SH-SY5Y,> 500 µg/mL
same,CC50,in vitro [3]; THP-1,> 500 µg/mL
same,MIC,M. intracellulare,> 100 µg/mL
same,MIC,Proteus mirabilis,> 100 µg/mL
same,MIC,Candida albicans,> 100 µg/mL
same,MIC,Shigella flexneri,> 100 µg/mL
same,MIC,Pseudomonas aeruginosa,> 100 µg/mL
same,MIC,[4],> 100 µg/mL
same,MIC,[5],> 100 µg/mL
same,MIC,Salmonella Typhimurium,> 100 µg/mL
same,MIC,Cryptococcus neoformans,> 100 µg/mL
same,MIC,Serratia marcescens,> 100 µg/mL
same,MIC,[6],> 100 µg/mL
same,MIC,Trichophyton rubrum,> 100 µg/mL
same,MIC,Shigella boydii,> 100 µg/mL
